# What was measured:
# [1] = tested on: human hepatocellular carcinoma (HEPG-2); assay: Cytotoxic screening; type: cell-based; details: HepG2, read-out: IC50 HepG-2
# Description: (§1) Human colon carcinoma (HCT-116), human hepatocellular carcinoma (HEPG-2), adenocarcinomic human alveolar basal epithelial cell (A-549), and human breast adenocarcinoma (MCF-7) cell lines were obtained from the American Type Culture Collection (ATCC, Rockville, MD). The cells were grown on RPMI-1640 medium supplemented with 10 % inactivated fetal calf serum and 50 µg/ml gentamycin. The cells were maintained at 37 °C in a humidified atmosphere with 5 % CO2 and were subcultured two to three times a week. Potential cytotoxicity of the compounds was evaluated on tumor cells using the method of Gangadevi and Muthumary (2007[21]) (Klancnik et al., 2010[36]). The cells were grown as monolayers in growth RPMI-1640. The monolayers of 104 cells adhered at the bottom of the wells in a 96-well microtiter plate incubated for 24 h at 37 °C in a humidified incubator with 5 % CO2. The monolayers were then washed with sterile phosphate buffered saline (0.01 M pH 7.2) and simultaneously the cells were treated with 100 µL from different dilutions of tested sample in fresh maintenance medium and incubated at 37 °C. A control of untreated cells was made in the absence of tested sample. Positive controls containing doxorubicin were also tested as a reference drug for comparison. Six wells were used for each concentration of the test sample. Every 24 hours an observation under the inverted microscope was made. The number of the surviving cells was determined by staining the cells with crystal violet (Mosmann, 1983[42]; Gangadevi and Muthumary, 2007[21]) followed by cell lysing using 33 % glacial acetic acid and reading the absorbance at 590 nm using microplate reader (SunRise, TECAN, Inc, USA) after well mixing. The absorbance values from untreated cells were considered as 100 % proliferation. The number of viable cells was determined using microplate reader as previously mentioned before and the percentage of […] was calculated as [1-(ODt/ODc)] x 100 % where ODt is the mean optical density of wells treated with the tested sample and ODc is the mean optical density of untreated cells. The relation between surviving cells and drug concentration was plotted to get the survival curve of each tumor cell line after treatment with the specified compound. The 50 % inhibitory concentration (IC50), the concentration required to cause toxic effects in 50 % of intact cells, was estimated from graphic plots.
# (§2) The in vitro cytotoxic activity was performed by MTT assay (Mosmann, 1983[42]; Alley et al., 1988[6]) against three human carcinoma cell lines: Human colon carcinoma (HCT-116), human breast adenocarcinoma (MCF-7), and human hepatocellular carcinoma (HEPG-2).
# [2] = tested on: human breast adenocarcinoma (MCF-7); assay: Cytotoxic screening; type: cell-based; details: Homo sapiens, MCF7; read-out: IC50 MCF-7
# Description: as §1, §2
# [3] = tested on: Human colon carcinoma (HCT-116); assay: Cytotoxic screening; type: cell-based; details: Homo sapiens, HCT-116; read-out: IC50 HCT-116
# Description: as §1, §2
# [4] = tested on: Syncephalastrum racemosum (RCMB 05922); assay: MIC by serial dilution method; type: cell-based; details: RCMB05922, fungi, read-out: Minimum inhibitory concentration, MIC, S.R
# Description: (§3) All the newly synthesized compounds described in this report were screened for both antibacterial and antifungal activity via the reported agar diffusion well method (Vanden Berghe and Vlietinck, 1991[62]). The inhibition zones and minimum inhibitory concentrations (MIC) were determined by the serial dilution method (Cappuccino and Sherman, 1999[12]). The antimicrobial activity of the synthesized compounds was tested against a broad panel of microorganisms including two Gram-positive bacteria: Streptococcus pneumoniae (RCMB 010010) and Bacillus subtilis (RCMB 010067), two Gram-negative bacteria: Pseudomonas aeruginosa (RCMB 010043) and Escherichia coli (RCMB 010052), and four fungi: Aspergillus fumigatus (RCMB 02568), Syncephalastrum racemosum (RCMB 05922), Geotricum candidum (RCMB 05097), and Candida albicans (RCMB 05036). Ampicillin, ciprofloxacin, gentamicin and amphotericin B were used as positive control drugs (Atta-ur-Rahman and Thomsen, 2001[7]; Smania et al., 1999[57]). […] While in the case of Gm-ve bacteria, they had weak activity. In addition, certain strains of fungi were sensitive to tested compounds with an IZ range from 12-25 except Candida albicans.
# [5] = tested on: Streptococcus pneumoniae (RCMB 010010); assay: MIC by serial dilution method; type: cell-based; details: RCMB010010, Gm+ve, read-out: Minimum inhibitory concentration, MIC, S.P
# Description: as §3
# [6] = tested on: Aspergillus fumigatus (RCMB 02568); assay: MIC by serial dilution method; type: cell-based; details: RCMB02568, fungi, read-out: Minimum inhibitory concentration, MIC, A.F
# Description: as §3
# [7] = tested on: Bacillus subtilis (RCMB 010067); assay: MIC by serial dilution method; type: cell-based; details: RCMB010067, Gm+ve, read-out: Minimum inhibitory concentration, MIC, B.S
# Description: as §3
# [8] = tested on: Pseudomonas aeruginosa (RCMB 010043); assay: MIC by serial dilution method; type: cell-based; details: RCMB010043, Gm-ve, read-out: Minimum inhibitory concentration, MIC, P.A
# Description: as §3
# [9] = tested on: Escherichia coli (RCMB 010052); assay: MIC by serial dilution method; type: cell-based; details: RCMB010052, Gm-ve, read-out: Minimum inhibitory concentration, MIC, E.C
# Description: as §3
# [10] = tested on: Geotricum candidum (RCMB 05097); assay: MIC by serial dilution method; type: cell-based; details: fungi; read-out: Minimum inhibitory concentration, MIC, G.C
# Description: as §3
# [11] = tested on: Syncephalastrum racemosum (RCMB 05922); assay: Well diffusion assay (inhibition zone); type: cell-based; details: RCMB05922, 5 mg/mL in DMSO, fungi, read-out: Inhibition Zone (IZ) diameter, S.R
# Description: (§4) The microorganism inoculums were uniformly spread using sterile cotton swabs on a sterile Petri dish malt extract agar (for fungi) and nutrient agar (for bacteria). One hundred cubic millimeters of each sample was added to each well (10 mm-diameter holes were cut in the agar gel, 20 mm apart from one another). The systems were incubated for 24-48 h at 37 °C (for bacteria) and at 28 °C (for fungi). After incubation, the microorganism growth was observed. Inhibition zones of the bacterial and fungal growth were measured in millimeters. Tests were performed in triplicate (Cappuccino and Sherman, 1999[12]; Vanden Berghe and Vlientinck, 1991[62]).
# as §3
# [12] = tested on: Streptococcus pneumoniae (RCMB 010010); assay: Well diffusion assay (inhibition zone); type: cell-based; details: RCMB010010, 5 mg/mL in DMSO, Gm+ve, read-out: Inhibition Zone (IZ) diameter, S.P
# Description: as §4, §3
# [13] = tested on: Aspergillus fumigatus (RCMB 02568); assay: Well diffusion assay (inhibition zone); type: cell-based; details: RCMB02568, 5 mg/mL in DMSO, fungi, read-out: Inhibition Zone (IZ) diameter, A.F
# Description: as §4, §3
# [14] = tested on: Bacillus subtilis (RCMB 010067); assay: Well diffusion assay (inhibition zone); type: cell-based; details: RCMB010067, 5 mg/mL in DMSO, Gm+ve, read-out: Inhibition Zone (IZ) diameter, B.S
# Description: as §4, §3
# [15] = tested on: Pseudomonas aeruginosa (RCMB 010043); assay: Well diffusion assay (inhibition zone); type: cell-based; details: RCMB010043, 5 mg/mL in DMSO, Gm-ve, read-out: Inhibition Zone (IZ) diameter, P.A
# Description: as §4, §3
# [16] = tested on: Escherichia coli (RCMB 010052); assay: Well diffusion assay (inhibition zone); type: cell-based; details: RCMB010052, 5 mg/mL in DMSO, Gm-ve, read-out: Inhibition Zone (IZ) diameter, E.C
# Description: as §4, §3
# [17] = tested on: Geotricum candidum (RCMB 05097); assay: Well diffusion assay (inhibition zone); type: cell-based; details: 5 mg/mL in DMSO; fungi; read-out: Inhibition Zone (IZ) diameter, G.C
# Description: as §4, §3
SMILES,IC50 [1],IC50 [2],IC50 [3],MIC [4],MIC [5],MIC [6],MIC [7],MIC [8],MIC [9],MIC [10],zone of inhibition at 5000 µg/mL [11],zone of inhibition at 5000 µg/mL [12],zone of inhibition at 5000 µg/mL [13],zone of inhibition at 5000 µg/mL [14],zone of inhibition at 5000 µg/mL [15],zone of inhibition at 5000 µg/mL [16],zone of inhibition at 5000 µg/mL [17],melting point
"COc1ccc(C2C(C#N)=C(N)Oc3c(N)cc4ccccc4c32)cc1 (centres unmarked) [4d, 3,5-diamino-1-(4-methoxy-phenyl)-1H-benzo[f]chromene-2-carbonitrile]",2.64 µg/mL,4.68 µg/mL,4.79 µg/mL,62.5 µg/mL,7.81 µg/mL,0.98 µg/mL,0.007 µg/mL,125 µg/mL,15.6 µg/mL,0.06 µg/mL,16.5 mm,19.5 mm,22.3 mm,29.8 mm,12.3 mm,17.6 mm,25.8 mm,183 °C
"O=[N+]([O-])c1ccc(N=Nc2ccc(O)cc2O)cc1 [12c, 4-(4-Nitro-phenylazo)-benzene-1,3-diol]",21.2 µg/mL,24 µg/mL,30.2 µg/mL,125 µg/mL,31.2 µg/mL,62.5 µg/mL,7.81 µg/mL,–,125 µg/mL,15.6 µg/mL,14.2 mm,17.2 mm,16.4 mm,18.6 mm,–,13.5 mm,17.9 mm,–
"CC(C)(C)c1ccc(C2C(C#N)=C(N)Oc3cc(O)c(N=Nc4ccc(S(=O)(=O)O)cc4)cc32)cc1 (centres unmarked) [13g, 4-[2-Amino-4-(4-tert-butyl-phenyl)-3-cyano-7-hydroxy-4H-chromen-6-ylazo]-benzenesulfonic acid]",81.3 µg/mL,92.6 µg/mL,100 µg/mL,–,–,–,–,–,–,–,15.2 mm,15.2 mm,14.3 mm,16.1 mm,–,13.6 mm,17.1 mm,330 °C
"CCCCc1ccc(C2C(C#N)=C(N)Oc3cc(O)c(N=Nc4ccc(S(=O)(=O)O)cc4)cc32)cc1 (centres unmarked) [13h, 4-[2-Amino-4-(4-butyl-phenyl)-3-cyano-7-hydroxy-4H-chromen-6-ylazo]-benzenesulfonic acid]",40.4 µg/mL,44.6 µg/mL,88.6 µg/mL,–,–,–,–,–,–,–,13.6 mm,15.3 mm,12.1 mm,16.3 mm,–,13.9 mm,15.8 mm,275 °C
"CC1(C)S[C@@H]2[C@H](NC(=O)[C@H](N)c3ccccc3)C(=O)N2[C@H]1C(=O)O [Ampicillin, reference compound]",–,–,–,–,0.24 µg/mL,–,0.007 µg/mL,–,–,–,–,23.8 mm,–,32.4 mm,–,–,–,–
"O=C(O)c1cn(C2CC2)c2cc(N3CCNCC3)c(F)cc2c1=O [Ciprofloxacin, reference compound]",–,–,–,–,–,–,–,0.99 µg/mL,0.49 µg/mL,–,–,–,–,–,22.3 mm,25.3 mm,–,–
"CNC(C)C1CCC(N)C(OC2C(N)CC(N)C(OC3OCC(C)(O)C(NC)C3O)C2O)O1 (centres unmarked) [Gentamicin, reference compound]",–,–,–,–,–,–,–,31.2 µg/mL,3.9 µg/mL,–,–,–,–,–,17.3 mm,19.9 mm,–,–
